Here are results for 23 compounds from US10538517B2, “Quinolone derivatives as FGFR inhibitors” (Principia Biopharma, Inc., priority 2015, dated 2020).

The test system of one assay is SNU-16 cells. Put plainly: Inhibition of FGFR2-dependent cell growth (Cell-titer Glo). The class given is cell-based. Particulars: Homo sapiens, 72 hrs incubation, cell viability, read-out: SNU16 IC50 values. On the procedure:
The cell-based effects of FGFR inhibitors were determined by measuring inhibition of FGFR-dependent cell line growth. The cell lines SNU-16 was used for these assays. […] Percent inhibition of cell growth was calculated as a percentage of untreated cell viability. The percent inhibition was plotted as a function of log compound concentration. The IC50 was then calculated for each compound using Prism software from GraphPad.
The term IC50 denotes the concentration needed to halve the response being measured. On to `CNc1ncc2cc(-c3cc(OC)cc(OC)c3)c(=O)n(CCc3ccc(NC(=O)C(C#N)=CC(C)(C)N)cc3)c2n1` [Cpd 9 (table 2), 4-amino-2-cyano-N-(4-(2-(6-(3,5-dimethoxyphenyl)-2-(methylamino)-7-oxopyrido[2,3-d]pyrimidin-8(7H)-yl)ethyl)phenyl)-4-methylpent-2-enamide], for which the IC50 turned out to be 29.7 nM. With `CNc1ncc2cc(-c3cc(OC)cc(OC)c3)c(=O)n(CCc3ccc(NC(=O)C(C#N)=CC(C)(C)C)cc3)c2n1` [Cpd 8 (table 2), 2-cyano-N-(4-(2-(6-(3,5-dimethoxyphenyl)-2-(methylamino)-7-oxopyrido[2,3-d]pyrimidin-8(7H)-yl)ethyl)phenyl)-4,4-dimethylpent-2-enamide], the IC50 worked out at 18.6 nM.

The assay is the same for the next values; noted with them: Homo sapiens, SNU-16, 72 h, 72 hrs incubation, cell viability, read-out: SNU16 IC50 values.
For the compound `COc1cc(OC)c(Cl)c(-c2cc3cnc(N)nc3n(CCc3cccc(NC(=O)C(C#N)=CC(C)(C)C)c3)c2=O)c1` [Cpd 50 (table 2), N-(3-(2-(2-amino-6-(2-chloro-3,5-dimethoxyphenyl)-7-oxopyrido[2,3-d]pyrimidin-8(7H)-yl)ethyl)phenyl)-2-cyano-4,4-dimethylpent-2-enamide], the half-inhibitory concentration (IC50) is 4.6 nM. Same read-out and setting: the value for `CNc1ncc2cc(-c3cc(OC)cc(OC)c3Cl)c(=O)n(CCc3ccc(NC(=O)C(C#N)=CC(C)(C)N4CCN(C5COC5)CC4)cc3)c2n1` [Cpd 61 (table 2), N-(4-(2-(6-(2-chloro-3,5-dimethoxyphenyl)-2-(methylamino)-7-oxopyrido[2,3-d]pyrimidin-8(7H)-yl)ethyl)phenyl)-2-cyano-4-methyl-4-(4-(oxetan-3-yl)piperazin-1-yl)pent-2-enamide] was 4.3 nM; that for `CNc1ncc2cc(-c3cc(OC)cc(OC)c3Cl)c(=O)n(CCc3cccc(NC(=O)C(C#N)=CC(C)(C)N)n3)c2n1` [Cpd 17 (table 2), 4-amino-N-(6-(2-(6-(2-chloro-3,5-dimethoxyphenyl)-2-(methylamino)-7-oxopyrido[2,3-d]pyrimidin-8(7H)-yl)ethyl)pyridin-2-yl)-2-cyano-4-methylpent-2-enamide] was 8.1 nM; that for `CNc1ncc2cc(-c3cc(OC)cc(OC)c3Cl)c(=O)n(CCc3cccc(NC(=O)C(C#N)=CC(C)(C)C)n3)c2n1` [Cpd 16 (table 2), N-(6-(2-(6-(2-chloro-3,5-dimethoxyphenyl)-2-(methylamino)-7-oxopyrido[2,3-d]pyrimidin-8(7H)-yl)ethyl)pyridin-2-yl)-2-cyano-4,4-dimethylpent-2-enamide] was 43.9 nM. Regarding `CNc1ncc2cc(-c3cc(OC)cc(OC)c3Cl)c(=O)n(CCc3cnc(NC(=O)C(C#N)=CC(C)(C)C)cn3)c2n1` [Cpd 71 (table 2), N-(5-(2-(6-(2-chloro-3,5-dimethoxyphenyl)-2-(methylamino)-7-oxopyrido[2,3-d]pyrimidin-8(7H)-yl)ethyl)pyrazin-2-yl)-2-cyano-4,4-dimethylpent-2-enamide], the IC50 is 79.6 nM. As to `COc1cc(OC)c(Cl)c(-c2cc3cnc(NCC(C)(C)O)nc3n(CCc3cccc(NC(=O)C(C#N)=CC(C)(C)C)c3)c2=O)c1` [Cpd 52 (table 2), N-(3-(2-(6-(2-chloro-3,5-dimethoxyphenyl)-2-((2-hydroxy-2-methylpropyl)amino)-7-oxopyrido[2,3-d]pyrimidin-8(7H)-yl)ethyl)phenyl)-2-cyano-4,4-dimethylpent-2-enamide], the half-inhibitory concentration (IC50) was found to be 15.7 nM.

With `CNc1ncc2cc(-c3cc(OC)cc(OC)c3Cl)c(=O)n(CCc3cccc(NC(=O)C(C#N)=CC(C)(C)N4CCC(O)CC4)c3)c2n1` [Cpd 53 (table 2), N-(3-(2-(6-(2-chloro-3,5-dimethoxyphenyl)-2-(methylamino)-7-oxopyrido[2,3-d]pyrimidin-8(7H)-yl)ethyl)phenyl)-2-cyano-4-(4-hydroxypiperidin-1-yl)-4-methylpent-2-enamide], the IC50 stood at 5.1 nM. On the same count and under the same terms, in the case of `CNc1ncc2cc(-c3cc(OC)cc(OC)c3Cl)c(=O)n(CCCN3CCN(C(=O)C(C#N)=CC(C)(C)C)CC3)c2n1` [Cpd 5 (table 1), 2-(4-(3-(6-(2-chloro-3,5-dimethoxyphenyl)-2-(methylamino)-7-oxopyrido[2,3-d]pyrimidin-8(7H)-yl)propyl)piperazine-1-carbonyl)-4,4-dimethylpent-2-enenitrile] it was 27.2 nM. The same measure, in the same setting: the value for `CNc1ncc2cc(-c3cc(OC)cc(OC)c3)c(=O)n(CCc3cccc(NC(=O)C(C#N)=CC(C)(C)N)c3)c2n1` [Cpd 11 (table 2), 4-amino-2-cyano-N-(3-(2-(6-(3,5-dimethoxyphenyl)-2-(methylamino)-7-oxopyrido[2,3-d]pyrimidin-8(7H)-yl)ethyl)phenyl)-4-methylpent-2-enamide] was 73.4 nM; that for `CNc1ncc2cc(-c3cc(OC)cc(OC)c3Cl)c(=O)n(CCc3cccc(N(C)C(=O)C(C#N)=CC(C)(C)N(C)C)c3)c2n1` [Cpd 39 (table 2), N-(3-(2-(6-(2-chloro-3,5-dimethoxyphenyl)-2-(methylamino)-7-oxopyrido[2,3-d]pyrimidin-8(7H)-yl)ethyl)phenyl)-2-cyano-4-(dimethylamino)-N,4-dimethylpent-2-enamide] was 40.2 nM; that for `CNc1ncc2cc(-c3cc(OC)cc(OC)c3Cl)c(=O)n(CCN3CCN(C(=O)C(C#N)=CC(C)(C)C)CC3)c2n1` [Cpd 2 (table 1), 2-(4-(2-(6-(2-chloro-3,5-dimethoxyphenyl)-2-(methylamino)-7-oxopyrido[2,3-d]pyrimidin-8(7H)-yl)ethyl)piperazine-1-carbonyl)-4,4-dimethylpent-2-enenitrile] was 50.8 nM.

With `CCN(CC)CCCCNc1ncc2cc(-c3c(Cl)c(OC)cc(OC)c3Cl)c(=O)n(Cc3cccc(NC(=O)C(C#N)=CC(C)C)c3)c2n1` [Cpd 5 (table 2), 2-cyano-N-(3-((6-(2,6-dichloro-3,5-dimethoxyphenyl)-2-((4-(diethylamino)butyl)amino)-7-oxopyrido[2,3-d]pyrimidin-8(7H)-yl)methyl)phenyl)-4-methylpent-2-enamide], the IC50 is 1.5 nM.

With `CNc1ncc2cc(-c3cc(OC)cc(OC)c3Cl)c(=O)n(CCc3ccc(NC(=O)C(C#N)=CC(C)(C)N)nc3)c2n1` [Cpd 21 (table 2), 4-amino-N-(5-(2-(6-(2-chloro-3,5-dimethoxyphenyl)-2-(methylamino)-7-oxopyrido[2,3-d]pyrimidin-8(7H)-yl)ethyl)pyridin-2-yl)-2-cyano-4-methylpent-2-enamide], the IC50 amounted to 33.1 nM. For the compound `CNc1ncc2cc(-c3cc(OC)cc(OC)c3Cl)c(=O)n(CCc3ccc(NC(=O)C(C#N)=CC(C)(C)N4C[C@@H](C)N(C)[C@@H](C)C4)cc3)c2n1` [Cpd 60 (table 2), N-(4-(2-(6-(2-chloro-3,5-dimethoxyphenyl)-2-(methylamino)-7-oxopyrido[2,3-d]pyrimidin-8(7H)-yl)ethyl)phenyl)-2-cyano-4-methyl-4-((3S,5R)-3,4,5-trimethylpiperazin-1-yl)pent-2-enamide], the IC50 was 5.6 nM.

With `CNc1ncc2cc(-c3cc(OC)cc(OC)c3Cl)c(=O)n(CCc3ccnc(NC(=O)C(C#N)=CC(C)(C)N)c3)c2n1` [Cpd 20 (table 2), 4-amino-N-(4-(2-(6-(2-chloro-3,5-dimethoxyphenyl)-2-(methylamino)-7-oxopyrido[2,3-d]pyrimidin-8(7H)-yl)ethyl)pyridin-2-yl)-2-cyano-4-methylpent-2-enamide], the IC50 came out at 91.4 nM. Regarding `CNc1ncc2cc(-c3cc(OC)cc(OC)c3Cl)c(=O)n(CCN3C[C@@H]4CN(C(=O)C(C#N)=CC(C)(C)C)C[C@@H]4C3)c2n1` [Cpd 6 (table 1), 2-((3aR,6aS)-5-(2-(6-(2-chloro-3,5-dimethoxyphenyl)-2-(methylamino)-7-oxopyrido[2,3-d]pyrimidin-8(7H)-yl)ethyl)octahydropyrrolo[3,4-c]pyrrole-2-carbonyl)-4,4-dimethylpent-2-enenitrile], the 50% inhibitory concentration (IC50) turned out to be 649 nM. On the same count and under the same terms, in the case of `CNc1ncc2cc(-c3cc(OC)cc(OC)c3Cl)c(=O)n(CCc3cccc(NC(=O)C(C#N)=CC(C)(C)N(C)C4COC4)c3)c2n1` [Cpd 43 (table 2), N-(3-(2-(6-(2-chloro-3,5-dimethoxyphenyl)-2-(methylamino)-7-oxopyrido[2,3-d]pyrimidin-8(7H)-yl)ethyl)phenyl)-2-cyano-4-methyl-4-(methyl(oxetan-3-yl)amino)pent-2-enamide] it was 2.4 nM. `COc1cc(OC)c(Cl)c(-c2cc3cnc(NCCN4CCOCC4)nc3n(CCc3ccc(NC(=O)C(C#N)=CC(C)(C)C)cc3)c2=O)c1` [Cpd 68 (table 2), N-(4-(2-(6-(2-chloro-3,5-dimethoxyphenyl)-2-((2-morpholinoethyl)amino)-7-oxopyrido[2,3-d]pyrimidin-8(7H)-yl)ethyl)phenyl)-2-cyano-4,4-dimethylpent-2-enamide]: the IC50 was 35.5 nM. As for `CCN(CC)CCCCNc1ncc2cc(-c3c(Cl)c(OC)cc(OC)c3Cl)c(=O)n(CCc3ccc(NC(=O)C(C#N)=CC(C)C)cc3)c2n1` [Cpd 4 (table 2), 2-cyano-N-(4-(2-(6-(2,6-dichloro-3,5-dimethoxyphenyl)-2-((4-(diethylamino)butyl)amino)-7-oxopyrido[2,3-d]pyrimidin-8(7H)-yl)ethyl)phenyl)-4-methylpent-2-enamide], the 50% inhibitory concentration (IC50) is 5.3 nM. For the compound `CNc1ncc2cc(-c3c(Cl)c(OC)cc(OC)c3Cl)c(=O)n(CCN3CCN(C(=O)C(C#N)=CC(C)(C)C)CC3)c2n1` [Cpd 3 (table 1), 2-(4-(2-(6-(2,6-dichloro-3,5-dimethoxyphenyl)-2-(methylamino)-7-oxopyrido[2,3-d]pyrimidin-8(7H)-yl)ethyl)piperazine-1-carbonyl)-4,4-dimethylpent-2-enenitrile], the IC50 was found to be 34 nM. Still for that read-out and setting: in the case of `CNc1ncc2cc(-c3cc(OC)cc(OC)c3Cl)c(=O)n(CCCc3ccc(C=C(C#N)C(=O)NC(C)(C)C)cc3)c2n1` [Cpd 75 (table 2), N-(tert-butyl)-3-(4-(3-(6-(2-chloro-3,5-dimethoxyphenyl)-2-(methylamino)-7-oxopyrido[2,3-d]pyrimidin-8(7H)-yl)propyl)phenyl)-2-cyanoacrylamide] it was 87.2 nM.
